Laboratory results reported in article PMC12271471, “Direct synthesis of mycophenolic acid aryl esters with antioxidant and antiproliferative properties” (Scientific Reports, 2025).

What was measured:
PBMCs = assay: XTT cytotoxicity test on PBMCs; assay type: cell-based; conditions: Homo sapiens, PBMC, 72 h (ESI: 96 h), viability, mean ± SD, read-out: Relative IC50 PBMCs (XTT)
Method: (§1) Table 3 presents the IC50 values obtained from the XTT test on PBMCs and the T-Jurkat cell line, using MPA and MMF as standards. These values indicate the concentration of each compound required to reduce the viability of PBMCs (healthy cells) and T-Jurkat cells (T-cell leukemia) by 50% compared to the control. Cells were treated with compounds for 72 h (PBMCs) or 48 h (T-Jurkat), followed by a colorimetric XTT test. The results are illustrated in ESI Fig. S2 as a viability curve in relation to concentration.
Biological evaluation — PBMC and T-Jurkat cells […]
(§2) Human peripheral blood mononuclear cells (PBMCs) were isolated from buffy coats provided by anonymous, healthy volunteers with an average age of 35±4 years during routine transfusion procedure. These samples were received by the Authors from the Regional Centre for Blood Donation and Treatment in Gdańsk (Poland). […]
(§3) solely for PBMCs isolation. PBMCs were suspended in a complete X-VIVO medium, consisting of X-VIVO20, 10% heat-inactivated human AB serum, penicillin (100 U/ml), and streptomycin ([…]).
(§4) MPA derivatives preparation
(§5) To achieve the desired concentrations of the tested compounds, the substances were first dissolved in DMSO to reach a final concentration of 0.01 M. The solutions were then diluted in the appropriate additive-free medium (RPMI-1640 for T-Jurkat cells and X-VIVO20 for PBMCs) to obtain […]
(§6) Peripheral blood mononuclear cells were isolated by gradient centrifugation, as described previously. Buffy coats were diluted with phosphate-buffered saline (PBS, pH = 7.4, ThermoFisher Scientific) in a 1:1 ratio, layered at Ficoll-Paque™ PLUS (VWR International), and centrifuged at 800 × g for 20 minutes. The PBMC layer was collected and washed twice with PBS (1st wash: 600 × g for 10 minutes; 2nd wash: 600 × g for 5 minutes). Cell amount and viability were assessed using the Bio-Rad TC20™ automated cell counter combined with trypan blue staining.
(§7) XTT dye-based in vitro cytotoxicity test
(§8) The cytotoxic effects of mycophenolic acid (MPA) derivatives were assessed using an in vitro XTT-based assay (Roche). PBMCs in complete X-VIVO20 medium and T-Jurkat cells in complete RPMI-1640 medium were seeded into 96-well plates at a concentration of 5∙10^5 cells/50 µl per well. 50 µl of tested compounds were added to the experimental wells to achieve final concentrations of 50, 25, 10, 5, 1, 0.1, and 0.01 µM. The background control consisted of the medium without cells, while untreated cells served as the positive control. After incubating for 48 hours for T-Jurkat cells and 96 hours for PBMCs in a humidified atmosphere with 5% CO2 at 37°C, 50 µl of freshly prepared XTT reagent was added to all wells according to the manufacturer's instructions. The plates were then incubated for an additional 24 hours under the same conditions. The conversion of the water-soluble yellow XTT tetrazolium salt to orange formazan was quantified by measuring the optical density (OD) at 450 nm using an Agilent BioTek Epoch Microplate Spectrophotometer (Agilent Technologies), with a reference wavelength of 690 nm. The results were expressed as IC50 values for compounds that […]
(§9) inhibited cell viability by more than 50%. […]
PBMCs were suspended in a 15 mL centrifuge tube at a concentration of 10-30 × 10⁶ cells in 1 mL of PBS, then, 2 μL of 1 mM VPD 450 dye solution was added, incubated for 15 min at 37°C, washed with a 9-fold volume of warm PBS and centrifuged at 400 x g for 5 min. Then, the cells were suspended in 10 mL of X-VIVO medium with 10% FBS and centrifuged again at 400 x g for 5 min. After suspending the cells in the complete medium, the staining level was checked using flow cytometry. The cells thus obtained were stimulated with anti-CD3/anti-CD28 antibodies as described previously (see VPD450 dye-based in vitro cell proliferation test). To perform the GMP test, a proper amount of GMP was added to each well to reach its final concentration of 50 μM, and then incubated for 72 hours. Proliferative […]

T-Jurkat cells = assay: XTT cytotoxicity test on T-Jurkat cell line; assay type: cell-based, human; conditions: for IC50: Homo sapiens, T-Jurkat, 48 h, viability, mean ± SD, read-out: Relative IC50 T-Jurkat (XTT); for IS internal selectivity (IC50 PBMCs / IC50 T-Jurkat): ratio between XTT IC50 values for PBMCs and T-Jurkat cell line
Method: as §1
Biological evaluation — PBMC and T-Jurkat cells
The T-Jurkat cell line (Clone E6-1, ATCC TIB-152), derived from a human acute T-cell leukemia, was obtained from the cell bank of the Department of Medical Immunology at the Medical University of Gdańsk. Before experimentation, the cells were thawed and cultured for about 7 days to reach the logarithmic phase of growth. The T-Jurkat cell line was suspended in a complete RPMI medium, which included RPMI-1640, 10% FBS, penicillin (100 U/ml), and streptomycin ([…]).
as §2, §3, §4, §5, §6, §7, §8, §9
PBMCs were suspended in a 15 mL centrifuge tube at a concentration of 10-30 × 10⁶ cells in 1 mL of PBS, then, 2 μL of 1 mM VPD 450 dye solution was added, incubated for 15 min at 37°C, washed with a 9-fold volume of warm PBS and centrifuged at 400 x g for 5 min. Then, the cells were suspended […]

| SMILES | IC50 (PBMCs) [µM] | IC50 (T-Jurkat cells) [nM] | IS internal selectivity (IC50 PBMCs / IC50 T-Jurkat) (T-Jurkat cells) |
| --- | --- | --- | --- |
| COc1c(C)c2c(c(O)c1C/C=C(\C)CCC(=O)Oc1ccc3c(c1)OCO3)C(=O)OC2 [P1] | 125.48 ± 0.025 | 1073 ± 2 | 116.938 |
| COC(=O)/C=C/c1ccc(OC(=O)CC/C(C)=C/Cc2c(O)c3c(c(C)c2OC)COC3=O)c(OC)c1 [MP7] | 30.43 ± 0.044 | 1406 ± 4 | 21.645 |
| COC(=O)/C=C/c1ccccc1OC(=O)CC/C(C)=C/Cc1c(O)c2c(c(C)c1OC)COC2=O [P4] | 25.887 ± 0.017 | 1658 ± 3 | 15.613 |
| COc1c(C)c2c(c(O)c1C/C=C(\C)CCC(=O)OCCN1CCOCC1)C(=O)OC2 [MMF, mycophenolate mofetil, reference compound] | 16.61 ± 0.041 | 740 ± 34 | 22.456 |
| COc1cc(C=O)cc(OC)c1OC(=O)CC/C(C)=C/Cc1c(O)c2c(c(C)c1OC)COC2=O [MP3] | 10.59 ± 0.04 | 4443 ± 7 | 2.383 |
| C/C=C/c1ccc(OC(=O)CC/C(C)=C/Cc2c(O)c3c(c(C)c2OC)COC3=O)c(OC)c1 [MP9] | 21.153 ± 0.015 | 1964 ± 2 | 10.770 |
| C=CCc1ccc(OC(=O)CC/C(C)=C/Cc2c(O)c3c(c(C)c2OC)COC3=O)c(OC)c1 [MP8] | 17.782 ± 0.011 | 1705 ± 2 | 10.429 |
| COc1ccccc1OC(=O)CC/C(C)=C/Cc1c(O)c2c(c(C)c1OC)COC2=O [MP1] | 14.78 ± 0.016 | 982 ± 5 | 15.051 |
| COc1c(C)c2c(c(O)c1C/C=C(\C)CCC(=O)O)C(=O)OC2 [MPA, Mycophenolic acid] | 18.73 ± 0.03 | 527 ± 40 | 35.558 |
| COc1c(C)c2c(c(O)c1C/C=C(\C)CCC(=O)Oc1ccc(CCC(C)=O)cc1)C(=O)OC2 [P7] | 50.294 ± 0.019 | 2410 ± 2 | 20.869 |
| COc1cc(C=O)ccc1OC(=O)CC/C(C)=C/Cc1c(O)c2c(c(C)c1OC)COC2=O [MP4] | 23.484 ± 0.015 | 5330 ± 5 | 4.406 |
| COc1c(C)c2c(c(O)c1C/C=C(\C)CCC(=O)Oc1cc(C)ccc1C(C)C)C(=O)OC2 [P2] | 16.349 ± 0.01 | 2473 ± 4 | 6.611 |
| COc1c(C)c2c(c(O)c1C/C=C(\C)CCC(=O)Oc1ccc(C=O)cc1)C(=O)OC2 [P5] | 9.948 ± 0.046 | 1582 ± 3 | 6.288 |
| COc1cccc(OC)c1OC(=O)CC/C(C)=C/Cc1c(O)c2c(c(C)c1OC)COC2=O [MP2] | 22.52 ± 0.039 | 1748 ± 6 | 12.883 |
